{
  "source": "patent US20250009769A1",
  "about": "“USE OF LYSOPHOSPHATIDIC ACID (LPA) IN CONTROLLING PORCINE INFECTIOUS DIARRHEA” (SICHUAN AGRICULTURAL UNIVERSITY, priority 2023, published 2025)",
  "key": {"[1]": {"tested_on": "ETEC", "assay": "Diarrhea rate caused by Escherichia coli in weaned piglets, dietary 0.2% LPA (Example 2)", "format": "in vivo, DLY weaned piglets", "details": "ETEC + LPA group: 0.2% LPA in diet", "protocol": "21-day-old DLY weaned piglets were selected, with an average weight of (6.23±0.82) kg.\nIn the experiment, 24 piglets were divided into 3 groups, each group had 8 replicates, and the experimental period was 21 d. […] Slaughtering and sampling were conducted on the morning of day 21 of the experiment."}, "[2]": {"tested_on": "ETEC", "assay": "Diarrhea rate and diarrhea index of weaned piglets after ETEC challenge, dietary 0.3% LPA (Example 1)", "format": "in vivo, DLY weaned piglets", "protocol": "(§1) 25-day-old DLY weaned piglets were selected, with an average weight of (7.24±0.07) kg.\n(§2) In the experiment, 32 piglets were divided into 4 groups with 8 replicates in each group, and the experimental period was 21 d. […] Slaughtering and sampling were conducted on the morning of day 21 of the experiment."}, "[3]": {"parameters": "species or system DLY weaned piglets", "details": "in vivo", "protocol": "as §1, §2"}, "[4]": {"tested_on": "ETEC", "assay": "Intestinal permeability of piglets infected with ETEC, dietary 0.3% LPA (Example 1)", "format": "in vivo, DLY weaned piglets", "protocol": "as §1, §2"}, "[5]": {"tested_on": "ETEC", "assay": "Intestinal tissue morphology of piglets infected with ETEC, dietary 0.3% LPA (Example 1)", "format": "in vivo, DLY weaned piglets", "details": "for Duodenum V/C ratio / Ileum V/C ratio / Jejunum V/C ratio: villus height/crypt depth", "protocol": "as §1, §2\nETEC challenge reduced villus height and V/C in the duodenum and ileum (P<0.05), and increased crypt depth in the ileum (P<0.05). […] Furthermore, the LPA reduced the crypt depth and increased the villus height/crypt depth (V/C) ratio in the ileum of ETEC-challenged piglets (P<0.05)."}, "[6]": {"details": "LPA + ETEC group: diet with 0.3% LPA, ETEC challenge on day 18"}, "[7]": {"details": "LPA group: diet with 0.3% LPA, saline instead of ETEC"}, "[8]": {"details": "LPA + ETEC group: 0.3% LPA, ETEC challenge"}},
  "note": "Marks after values point to notes of the source that are not given here.",
  "data": [
    {"smiles": "CCCCCCCC/C=C\\CCCCCCCC(=O)OC[C@@H](O)COP(=O)([O-])[O-].[Na+].[Na+]", "note": "[LPA, 1-oleoyl-sn-glycerol 3-phosphate sodium salt]", "values": [
      {"measurement": "Diarrhea index", "setting": "[1]; after challenge", "result": "1.98^b"},
      {"measurement": "Diarrhea rate", "setting": "[1]; after challenge", "result": "33.56 ± 0.28^b %"},
      {"measurement": "Diarrhea index", "setting": "[1]; before challenge", "result": 1.68},
      {"measurement": "Diarrhea rate", "setting": "[1]; before challenge", "result": "11.86 ± 0.15^b %"},
      {"measurement": "Diarrhea index", "setting": "[2]; [6]", "result": "0.75 ± 0.56^b"},
      {"measurement": "Diarrhea rate", "setting": "[2]; [6]", "result": "37.50 ± 27.99^b %"},
      {"measurement": "Diarrhea index", "setting": "[2]; [7]", "result": "0.00 ± 0.00^c"},
      {"measurement": "Diarrhea rate", "setting": "[2]; [7]", "result": "0.00 ± 0.00^c %"},
      {"measurement": "Impact on piglet growth performance", "setting": "[3]", "result": "no significant negative impact on piglet growth performance"},
      {"measurement": "D-lactic acid", "setting": "[4]; [8]", "result": "1.53 ± 0.93^b mg/L"},
      {"measurement": "DAO", "setting": "[4]; [8]", "result": "335.62 ± 14.23^b pg/mL"},
      {"measurement": "Fluid accumulation rate", "setting": "[4]; [8]", "result": "1.42 ± 0.68^b"},
      {"measurement": "LPS", "setting": "[4]; [8]", "result": "49.13 ± 2.56^b ng/L"},
      {"measurement": "D-lactic acid", "setting": "[4]; LPA group: 0.3% LPA, no ETEC", "result": "1.69 ± 0.22^b mg/L"},
      {"measurement": "DAO", "setting": "[4]; LPA group: 0.3% LPA, no ETEC", "result": "330.43 ± 12.78^b pg/mL"},
      {"measurement": "Fluid accumulation rate", "setting": "[4]; LPA group: 0.3% LPA, no ETEC", "result": "1.32 ± 1.21^b"},
      {"measurement": "LPS", "setting": "[4]; LPA group: 0.3% LPA, no ETEC", "result": "48.23 ± 5.23^b ng/L"},
      {"measurement": "Duodenum crypt depth", "setting": "[5]; [8]", "result": "273.45 ± 9.78 ^ μm"},
      {"measurement": "Duodenum villus height", "setting": "[5]; [8]", "result": "452.55 ± 11.68^b μm"},
      {"measurement": "Ileum crypt depth", "setting": "[5]; [8]", "result": "170.08 ± 4.12^b μm"},
      {"measurement": "Ileum villus height", "setting": "[5]; [8]", "result": "378.37 ± 13.76^a μm"},
      {"measurement": "Jejunum crypt depth", "setting": "[5]; [8]", "result": "177.98 ± 6.30 ^ μm"},
      {"measurement": "Jejunum villus height", "setting": "[5]; [8]", "result": "360.56 ± 10.87 ^ μm"},
      {"measurement": "Duodenum V/C ratio", "setting": "[5]; [8]", "result": "1.65 ± 1.19^b"},
      {"measurement": "Ileum V/C ratio", "setting": "[5]; [8]", "result": "2.22 ± 3.34^b"},
      {"measurement": "Jejunum V/C ratio", "setting": "[5]; [8]", "result": "2.02 ± 1.73^"},
      {"measurement": "Duodenum crypt depth", "setting": "[5]; LPA group: 0.3% LPA, no ETEC", "result": "270.03 ± 8.13", "unit": "μm"},
      {"measurement": "Duodenum villus height", "setting": "[5]; LPA group: 0.3% LPA, no ETEC", "result": "493.34 ± 12.43^a μm"},
      {"measurement": "Ileum crypt depth", "setting": "[5]; LPA group: 0.3% LPA, no ETEC", "result": "150.45 ± 4.89^b μm"},
      {"measurement": "Ileum villus height", "setting": "[5]; LPA group: 0.3% LPA, no ETEC", "result": "401.46 ± 13.45^a μm"},
      {"measurement": "Jejunum crypt depth", "setting": "[5]; LPA group: 0.3% LPA, no ETEC", "result": "160.98 ± 3.23", "unit": "μm"},
      {"measurement": "Jejunum villus height", "setting": "[5]; LPA group: 0.3% LPA, no ETEC", "result": "377.28 ± 9.89", "unit": "μm"},
      {"measurement": "Duodenum V/C ratio", "setting": "[5]; LPA group: 0.3% LPA, no ETEC", "result": "1.83 ± 1.53^a"},
      {"measurement": "Ileum V/C ratio", "setting": "[5]; LPA group: 0.3% LPA, no ETEC", "result": "2.67 ± 2.75^a"},
      {"measurement": "Jejunum V/C ratio", "setting": "[5]; LPA group: 0.3% LPA, no ETEC", "result": "2.34 ± 3.06"}
    ]}
  ]
}
